One experiment concerns Huh-7 luc/neo HCV replicon cells with conditioned media from PBMC. The experiment in a line: Interferon production in human PBMC (PBMC-HUH7_EC50), HCV replicon readout with conditioned media. As to conditions: Homo sapiens, Huh-7; concentration applied to PBMCs giving 50% reduction of replicon luciferase activity. Type of experiment: cell-based. How it is done:
Measurement of Interferon Production in Human PBMC (PBMC-HUH7_EC50)
Activation of human TLR7 results in robust production of interferon by plasmacytoid dendritic cells present in human blood. The potential of compounds to induce interferon was evaluated by looking at the antiviral activity in the HCV replicon system upon incubation with conditioned media from peripheral blood mononuclear cells (PBMC). The HCV replicon assay is based on a bicistronic expression construct, as described by Lohmann et al. (Science (1999) 285: 110-113; Journal of Virology (2003) 77: 3007-15 3019) with modifications described by Krieger et al. (Journal of Virology (2001) 75: 4614-4624). The assay utilized the stably transfected cell line Huh-7 luc/neo harboring an RNA encoding a bicistronic expression construct comprising the wild type NS3-NS5B regions of HCV type 1b translated from an Internal Ribosome Entry Site (IRES) from encephalomyocarditis virus (EMCV), preceded by a reporter gene (Firefly-luciferase) and a selectable marker gene (neoR, neomycine phosphotransferase). The construct is flanked by 5′ and 3′ NTRs (non-translated regions) from HCV type 1b. Continued culture of the replicon cells in the presence of G418 (neoR) is dependent on the replication of the HCV RNA. The stably transfected replicon cells that replicate HCV RNA autonomously and to high levels, encoding inter alia luciferase, were used for profiling of the conditioned cell culture media. Briefly, PBMCs were prepared from buffy coats of at least two donors using a standard Ficoll centrifugation protocol. Isolated PBMCs were resuspended in RPMI medium supplemented with 10% human AB serum and 2×10^5 cells/well were dispensed into 384-well plates containing compounds (70 μL total volume). After overnight incubation, […] was transferred to 384-well plates containing 2.2×10^3 replicon cells/well in 30 μL (plated the day before). Following 24 hours of incubation, replication was measured by assaying luciferase activity using 40 μL/well Steady Lite Plus substrate (Perkin Elmer) and measured with ViewLux ultraHTS microplate imager (Perkin Elmer). The inhibitory activity of each compound on the Huh7-luc/neo cells were reported as EC50 values, defined as the compound concentration applied to the PBMCs resulting in a 50% reduction of luciferase activity which in turn indicates the degree of replication of the replicon RNA on transfer of a defined amount of PBMC culture medium. Recombinant interferon α-2a (Roferon-A) was used as a standard control compound.
Sequence of human TLR7 (Q9NYK1 27-1049): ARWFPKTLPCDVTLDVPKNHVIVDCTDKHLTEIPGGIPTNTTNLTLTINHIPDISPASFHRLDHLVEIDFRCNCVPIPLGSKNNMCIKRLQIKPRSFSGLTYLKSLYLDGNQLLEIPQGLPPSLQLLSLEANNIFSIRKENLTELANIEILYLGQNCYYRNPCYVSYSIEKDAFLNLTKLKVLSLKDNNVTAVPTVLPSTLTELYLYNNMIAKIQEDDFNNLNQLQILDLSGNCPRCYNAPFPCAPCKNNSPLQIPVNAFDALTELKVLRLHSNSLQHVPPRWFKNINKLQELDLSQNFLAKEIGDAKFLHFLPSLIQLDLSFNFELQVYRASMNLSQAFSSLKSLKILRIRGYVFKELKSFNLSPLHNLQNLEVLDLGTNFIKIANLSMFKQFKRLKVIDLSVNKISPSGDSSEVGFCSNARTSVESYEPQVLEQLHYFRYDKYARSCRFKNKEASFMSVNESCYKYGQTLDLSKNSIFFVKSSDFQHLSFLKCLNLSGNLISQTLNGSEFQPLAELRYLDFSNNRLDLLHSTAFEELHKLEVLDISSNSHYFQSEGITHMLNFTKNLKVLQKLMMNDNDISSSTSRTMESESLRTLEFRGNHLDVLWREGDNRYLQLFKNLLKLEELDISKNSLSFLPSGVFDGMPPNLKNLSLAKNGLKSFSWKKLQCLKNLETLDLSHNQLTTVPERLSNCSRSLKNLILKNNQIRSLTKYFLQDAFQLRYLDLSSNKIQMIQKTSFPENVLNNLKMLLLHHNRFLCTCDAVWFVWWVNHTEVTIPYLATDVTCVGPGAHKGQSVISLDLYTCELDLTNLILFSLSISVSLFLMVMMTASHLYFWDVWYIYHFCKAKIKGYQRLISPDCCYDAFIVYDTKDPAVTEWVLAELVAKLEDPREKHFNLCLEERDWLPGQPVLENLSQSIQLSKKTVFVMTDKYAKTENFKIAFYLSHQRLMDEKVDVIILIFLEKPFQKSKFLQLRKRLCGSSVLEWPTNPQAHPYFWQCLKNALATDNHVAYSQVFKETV
The molecule `CCc1c[nH]c(-c2nc(N)c3[nH]c(=O)n(Cc4ccccc4)c3n2)n1` [Compound 30] had an EC50 of 170 nM.
Still for that read-out and setting: as for `Cn1ccnc1-c1nc(N)c2[nH]c(=O)n(Cc3ccccc3)c2n1` [Compound 12], the figure is 590 nM; as for `CC(C)(C)c1c[nH]c(-c2nc(N)c3[nH]c(=O)n(Cc4ccccc4)c3n2)n1` [Compound 28], above 23800 nM.
On the same count and under the same terms, as for `Cc1ccc(Cn2c(=O)[nH]c3c(N)nc(-c4nc(C5CC5)c[nH]4)nc32)cn1` [Compound 26], the figure is 5 nM; as for `Nc1nc(-c2ncc[nH]2)nc2c1[nH]c(=O)n2Cc1ccc2c(c1)CNCC2` [Compound 24], 46 nM; as for `Nc1nc(-c2ncc[nH]2)nc2c1[nH]c(=O)n2Cc1ccc(OCC(=O)O)nc1` [Compound 58], 2750 nM.
The same measure, in the same setting: the value for `Cc1noc(-c2nc(N)c3[nH]c(=O)n(Cc4ccccc4)c3n2)n1` [Compound 33] was 810 nM; that for `Nc1nc(-c2ncc[nH]2)nc2c1[nH]c(=O)n2Cc1cccc(CN2CCCC2)c1` [Compound 25] was 6 nM.
Consider `Cc1c[nH]c(-c2nc(N)c3[nH]c(=O)n(Cc4ccccc4)c3n2)n1` [Compound 8], for which the 50% effective concentration (EC50) came to 170 nM.
The same measure, in the same setting: the value for `Nc1nc(-c2nccn2CCO)nc2c1[nH]c(=O)n2Cc1ccccc1` [Compound 27] was 800 nM; that for `COCCn1ccnc1-c1nc(N)c2[nH]c(=O)n(Cc3ccccc3)c2n1` [Compound 11] was 330 nM; that for `Cc1cnn(-c2nc(N)c3[nH]c(=O)n(Cc4ccccc4)c3n2)c1` [Compound 35] was 170 nM.
On the same count and under the same terms, as for `Cc1cn[nH]c1-c1nc(N)c2[nH]c(=O)n(Cc3ccccc3)c2n1` [Compound 53], the figure is 760 nM; as for `Nc1nc(-c2ncc[nH]2)nc2c1[nH]c(=O)n2Cc1cccc(C(=O)N2CCCC2)c1` [Compound 55], 1270 nM.
The same measure, in the same setting: the value for `CC(C)c1c[nH]c(-c2nc(N)c3[nH]c(=O)n(Cc4ccccc4)c3n2)n1` [Compound 29] was 1660 nM.

The next experiment has as its system HEK-ISRE-luc cells with conditioned media from PBMC. The experiment in a line: Interferon production in human PBMC (PBMC HEK-ISRE-luc LEC). The format is cell-based. The settings on record: Homo sapiens, PBMC; lowest effective concentration; read-out: PBMC HEK-ISRE-luc (LEC). How it is done:
Measurement of Interferon Production in Human PBMC (PBMC HEK-ISRE-Luc LEC)
Activation of human TLR7 results in robust production of interferon by plasmacytoid dendritic cells present in human blood. The potential of compounds to induce interferon was evaluated by determination of interferon in the conditioned media from peripheral blood mononuclear cells (PBMC). The presence of interferon in the samples was determined, using an interferon reporter cell line stably expressing an interferon-stimulated responsive elements (ISRE)-luc reporter construct. The ISRE element with sequence GAAACTGAAACT (SEQ ID NO: 1) is highly responsive to the STAT1-STAT2-IRF9 transcription factor, which becomes activated upon binding of IFN-I to the IFN receptor. Briefly, PBMCs were prepared from buffy coats of at least two donors using a standard Ficoll centrifugation protocol. Isolated PBMCs were resuspended in RPMI medium supplemented with 10% human AB serum and 2×10^5 cells/well were dispensed into 384-well plates containing compounds (70 μL total volume). After overnight incubation of the PBMCs with the compounds, 10 μL of supernatant was transferred to 384-well plates containing 5×10^3 HEK-ISRE-luc cells/well in 30 μL (plated the day before). Following 24 hours of incubation, activation of the ISRE elements was measured by assaying luciferase activity using 40 μL/well Steady Lite Plus substrate (Perkin Elmer) and measured with ViewLux ultraHTS microplate imager (Perkin Elmer). The stimulating activity of each compound on the HEK-ISRE-luc cells was reported as LEC. The LEC in turn indicates the degree of ISRE activation on transfer of a defined amount of PBMC culture medium.
Recombinant interferon alfa-2a (Roferon-A) was used as a standard control compound.
Consider `CCc1c[nH]c(-c2nc(N)c3[nH]c(=O)n(Cc4ccccc4)c3n2)n1` [Compound 30], for which the minimal effective concentration is 0.12 µM.
Still for that read-out and setting: the value for `Cn1ccnc1-c1nc(N)c2[nH]c(=O)n(Cc3ccccc3)c2n1` [Compound 12] was 0.34 µM.
Same read-out and setting: the value for `CC(C)(C)c1c[nH]c(-c2nc(N)c3[nH]c(=O)n(Cc4ccccc4)c3n2)n1` [Compound 28] was above 23.8 µM; that for `Cc1ccc(Cn2c(=O)[nH]c3c(N)nc(-c4nc(C5CC5)c[nH]4)nc32)cn1` [Compound 26] was 0.006 µM.
Still for that read-out and setting: the value for `Nc1nc(-c2ncc[nH]2)nc2c1[nH]c(=O)n2Cc1ccc2c(c1)CNCC2` [Compound 24] was 0.03 µM; that for `Nc1nc(-c2ncc[nH]2)nc2c1[nH]c(=O)n2Cc1ccc(OCC(=O)O)nc1` [Compound 58] was 2.69 µM.
Consider `Cc1noc(-c2nc(N)c3[nH]c(=O)n(Cc4ccccc4)c3n2)n1` [Compound 33], for which the minimal effective concentration is 0.52 µM.
The same measure, in the same setting: as for `Nc1nc(-c2ncc[nH]2)nc2c1[nH]c(=O)n2Cc1cccc(CN2CCCC2)c1` [Compound 25], the figure is 0.007 µM; as for `Cc1c[nH]c(-c2nc(N)c3[nH]c(=O)n(Cc4ccccc4)c3n2)n1` [Compound 8], 0.25 µM; as for `Nc1nc(-c2nccn2CCO)nc2c1[nH]c(=O)n2Cc1ccccc1` [Compound 27], 0.43 µM.
Still for that read-out and setting: the value for `COCCn1ccnc1-c1nc(N)c2[nH]c(=O)n(Cc3ccccc3)c2n1` [Compound 11] was 0.32 µM; that for `Cc1cnn(-c2nc(N)c3[nH]c(=O)n(Cc4ccccc4)c3n2)c1` [Compound 35] was 0.1 µM; that for `Nc1nc(-c2ncc[nH]2)nc2c1[nH]c(=O)n2Cc1cccc(C(=O)N2CCCC2)c1` [Compound 55] was 1.16 µM.
The same measure, in the same setting: the value for `CC(C)c1c[nH]c(-c2nc(N)c3[nH]c(=O)n(Cc4ccccc4)c3n2)n1` [Compound 29] was 0.82 µM.

Another experiment concerns the target human TLR7 (Homo sapiens (Human), UniProt Q9NYK1). As to the kind of experiment: Reporter assay for TLR7 activity, HEK293 transiently transfected with wild type TLR7 and NFκB-luc. Type of experiment: cell-based. The settings on record: lowest effective concentration; 48 h transfection.
Regarding `CCc1c[nH]c(-c2nc(N)c3[nH]c(=O)n(Cc4ccccc4)c3n2)n1` [Compound 30], the “TLR7-wt_LEC 48 h” value was found to be 12.71 µM.
On the same count and under the same terms, the value for `Cn1ccnc1-c1nc(N)c2[nH]c(=O)n(Cc3ccccc3)c2n1` [Compound 12] was 8.08 µM.
The same measure, in the same setting: as for `CC(C)(C)c1c[nH]c(-c2nc(N)c3[nH]c(=O)n(Cc4ccccc4)c3n2)n1` [Compound 28], the figure is above 25 µM.
Same read-out and setting: the value for `Cc1ccc(Cn2c(=O)[nH]c3c(N)nc(-c4nc(C5CC5)c[nH]4)nc32)cn1` [Compound 26] was 2.42 µM; that for `Nc1nc(-c2ncc[nH]2)nc2c1[nH]c(=O)n2Cc1ccc2c(c1)CNCC2` [Compound 24] was 1.81 µM; that for `Nc1nc(-c2ncc[nH]2)nc2c1[nH]c(=O)n2Cc1ccc(OCC(=O)O)nc1` [Compound 58] was 0.99 µM.
Regarding `Cc1noc(-c2nc(N)c3[nH]c(=O)n(Cc4ccccc4)c3n2)n1` [Compound 33], the “TLR7-wt_LEC 48 h” value worked out at 21.66 µM.
On the same count and under the same terms, as for `Nc1nc(-c2ncc[nH]2)nc2c1[nH]c(=O)n2Cc1cccc(CN2CCCC2)c1` [Compound 25], the figure is 2.46 µM; as for `Cc1c[nH]c(-c2nc(N)c3[nH]c(=O)n(Cc4ccccc4)c3n2)n1` [Compound 8], 5.91 µM; as for `Nc1nc(-c2nccn2CCO)nc2c1[nH]c(=O)n2Cc1ccccc1` [Compound 27], 6.03 µM.
Take `COCCn1ccnc1-c1nc(N)c2[nH]c(=O)n(Cc3ccccc3)c2n1` [Compound 11]: the “TLR7-wt_LEC 48 h” value was determined as 5.36 µM.
On the same count and under the same terms, the value for `Cc1cnn(-c2nc(N)c3[nH]c(=O)n(Cc4ccccc4)c3n2)c1` [Compound 35] was 0.36 µM; that for `Cc1cn[nH]c1-c1nc(N)c2[nH]c(=O)n(Cc3ccccc3)c2n1` [Compound 53] was 3.17 µM.

The test system of a further experiment is human TLR7 dIRR2 mutant. As to the kind of experiment: Reporter assay for TLR7 activity, HEK293 transfected with mutant TLR7 (dIRR2 deletion) and NFκB-luc. Type of experiment: cell-based. As to conditions: lowest effective concentration; 48 h transfection.
With `CCc1c[nH]c(-c2nc(N)c3[nH]c(=O)n(Cc4ccccc4)c3n2)n1` [Compound 30], the “TLR7-dIRR2_LEC 48 h” value is 0.14 µM.
On the same count and under the same terms, the value for `Cn1ccnc1-c1nc(N)c2[nH]c(=O)n(Cc3ccccc3)c2n1` [Compound 12] was 0.3 µM; that for `CC(C)(C)c1c[nH]c(-c2nc(N)c3[nH]c(=O)n(Cc4ccccc4)c3n2)n1` [Compound 28] was 8.77 µM.
In the case of `Cc1ccc(Cn2c(=O)[nH]c3c(N)nc(-c4nc(C5CC5)c[nH]4)nc32)cn1` [Compound 26], the “TLR7-dIRR2_LEC 48 h” value is 0.21 µM.
Still for that read-out and setting: as for `Nc1nc(-c2ncc[nH]2)nc2c1[nH]c(=O)n2Cc1ccc2c(c1)CNCC2` [Compound 24], the figure is 0.11 µM.
For `Nc1nc(-c2ncc[nH]2)nc2c1[nH]c(=O)n2Cc1ccc(OCC(=O)O)nc1` [Compound 58], the “TLR7-dIRR2_LEC 48 h” value turned out to be 0.06 µM.
As to `Cc1noc(-c2nc(N)c3[nH]c(=O)n(Cc4ccccc4)c3n2)n1` [Compound 33], the “TLR7-dIRR2_LEC 48 h” value amounted to 0.98 µM.
On the same count and under the same terms, as for `Nc1nc(-c2ncc[nH]2)nc2c1[nH]c(=O)n2Cc1cccc(CN2CCCC2)c1` [Compound 25], the figure is 0.39 µM; as for `Cc1c[nH]c(-c2nc(N)c3[nH]c(=O)n(Cc4ccccc4)c3n2)n1` [Compound 8], 0.17 µM.
The same measure, in the same setting: the value for `Nc1nc(-c2nccn2CCO)nc2c1[nH]c(=O)n2Cc1ccccc1` [Compound 27] was 0.63 µM; that for `COCCn1ccnc1-c1nc(N)c2[nH]c(=O)n(Cc3ccccc3)c2n1` [Compound 11] was 0.19 µM; that for `Cc1cnn(-c2nc(N)c3[nH]c(=O)n(Cc4ccccc4)c3n2)c1` [Compound 35] was 0.033 µM.
The same measure, in the same setting: as for `Cc1cn[nH]c1-c1nc(N)c2[nH]c(=O)n(Cc3ccccc3)c2n1` [Compound 53], the figure is 0.36 µM.
In the case of `Nc1nc(-c2ncc[nH]2)nc2c1[nH]c(=O)n2Cc1cccc(C(=O)N2CCCC2)c1` [Compound 55], the “TLR7-dIRR2_LEC 48 h” value is 0.06 µM.
On the same count and under the same terms, the value for `CC(C)c1c[nH]c(-c2nc(N)c3[nH]c(=O)n(Cc4ccccc4)c3n2)n1` [Compound 29] was 1.58 µM.

Values taken from patent publication US10280167B2, “Purine derivatives for the treatment of viral infections” (JANSSEN SCIENCES IRELAND UC, priority 2011, dated 2019).
